Assay results published in patent publication US6762294B2, “Polynucleotides encoding polymorphic human GABAA receptor α-6 subunit” (The United States of America as represented by the …, priority 1999, dated 2004).
Like-named read-outs stand apart in the source and are kept apart here.

Columns and labels:
[1] = system: children of alcoholics (COAs); experiment: Smooth pursuit eye movement task after intravenous diazepam; type: in vivo, human; settings: COAs having the Pro385Ser allele relative to COAs having the Pro385 genotype
Description: Initially, the saccadic eye movement velocity and smooth pursuit eye movement gain was measured in the 56 COAs tested. Two baseline measurements for each variable were taken and averaged. The differences from this baseline were then evaluated at set time points after each of four diazepam doses. The data points were used to determine, by a trapezoidal technique, the integrated area under the resulting curve. The area under the curve for the dependent variable was then divided by the area under the curve for plasma diazepam levels to correct for individual variability in diazepam levels. The ratios of the areas under the curves for COAs with the Ser385 homozygous genotype and the Pro/Ser heterozygous genotype were then compared by t-test. […] For the G1031C genotype, a one-way ANOVA was used for assessing association.
COAs were tested on two days about one week apart. Intravenous catheters were inserted into antecubital veins in each of the subjects arms. One intravenous line was used for drawing blood while the other was used for administration of either diazepam or placebo. […]
On each testing day, responses were measured at 12 separate time points: twice at baseline, once after each of the four doses, and at each of six 30 minute intervals after the last dose for a period spanning three hours. Eye movements were evaluated at each time point. […]

[2] = system: sons of alcoholics and controls (men)
Description: As part of a larger study, 41 men, were selected from among the first 113 completed 15-year follow-ups in a prospective study. […] Seventeen subjects whose low level of response to ethanol (LR) were in the lower third were compared on five polymorphisms of four genes with 24 men whose reactions to alcohol had been above the median.
For this pilot study, blood samples were taken from the first 41 appropriate consecutive men among the first 113 who completed 15-year follow-ups in an ongoing study. In order to identify subjects who were clearly low on LR, the men were selected to represent the two poles of LR. […] The alcohol challenges, evaluated changes from baseline for subjective feeling of intoxication, standing steadiness, and hormones after drinking 0.75 ml/kg of ethanol. (Schuckit and Gold, Arch Gen Psychiatry 45:211-216 (1986). The overall LR was evaluated as the change from baseline (pre-alcohol) to the time of peak blood alcohol concentration (BAC) (60 minute values) following alcohol consumption.

SMILES: CN1C(=O)CN=C(c2ccccc2)c2cc(Cl)ccc21 [diazepam]
- Sensitivity to diazepam (average smooth pursuit eye movement gain) [1]: reduced sensitivity

SMILES: CCO [ethanol]
- mean (±SD) LR ([2]; 0.75 ml/kg ethanol, 5-HT2A His452Tyr genotype His-His): −.44
- mean (±SD) LR ([2]; 0.75 ml/kg ethanol, 5-HT2A His452Tyr genotype His-Tyr): −.20
- mean (±SD) LR ([2]; 0.75 ml/kg ethanol, 5-HT2A T102C genotype CC): −.46
- mean (±SD) LR ([2]; 0.75 ml/kg ethanol, 5-HT2A T102C genotype TC): −.31
- mean (±SD) LR ([2]; 0.75 ml/kg ethanol, 5-HT2A T102C genotype TT): −.71
- mean (±SD) LR ([2]; 0.75 ml/kg ethanol, 5-HT2C Cys23Ser genotype Cys): −.39
- mean (±SD) LR ([2]; 0.75 ml/kg ethanol, 5-HT2C Cys23Ser genotype Ser): −.73
- mean (±SD) LR ([2]; 0.75 ml/kg ethanol, 5-HT Transporter genotype SL): −.30
- mean (±SD) LR ([2]; 0.75 ml/kg ethanol, 5-HT Transporter genotype SS): −.00
- mean (±SD) LR ([2]; 0.75 ml/kg ethanol, GABAA α6 genotype Pro/Pro): −.27
- mean (±SD) LR ([2]; 0.75 ml/kg ethanol, GABAA α6 genotype Pro/Ser): −1.01
- mean LR ([2]; 0.75 ml/kg ethanol, combined SL and SS 5-HTT genotype groups): 0.16±0.75
- proportion of subjects whose LR fell into the lowest third ([2]; 5-HTT genotype LL): 71.4%
- proportion of subjects whose LR fell into the lowest third ([2]; 5-HTT genotype SL): 31.6%
- proportion of subjects whose LR fell into the lowest third ([2]; 5-HTT genotype SS): 12.5%
- LR at age 20 ([2]; LL/PP genotypes): −0.74±1.13
- proportion in the lowest third in response to alcohol ([2]; Pro385 homozygotes): 35.3%
- LR at age 20 ([2]; SL/PP genotypes): −0.13±0.88
- LR at age 20 ([2]; SL/PS genotypes): 0.59±1.11
- LR at age 20 ([2]; SS/PP genotypes): 0.03±0.45
- LR at age 20 ([2]; combination of LL 5-HTT and Ser385 GABAA α6 genotypes): −1.29±0.53
- Sensitivity to ethanol ([2]; individuals with the Pro385Ser polymorphism compared with the wild-type polymorphism): reduced sensitivity
- proportion in the lowest third in response to alcohol ([2]; those with Ser385 (Pro/Ser)): 71.4%
